Columns and labels:
Format in all cases: cell-based, human
[1] = system: OCT4-positive cells in Stage 1 differentiations of hES cells; test: Plating assay for depletion of OCT4-positive cells in Stage 1 suspension aggregates, OCT4 immunostaining
Description: Human ES cell suspension aggregates were formed in rotational culture as described previously and differentiated through Stage 1 (definitive endoderm). About 20-30 aggregates were then plated per well in 4-well tissue culture dishes coated with MATRIGEL· diluted 1:200, and cultured for 24 hours in hESC medium (DMEM/F12, 10% XF-KSR, 10 ng/mL Activin A and 10 ng/mL Heregulin). This approach was intended to increase the contrast in OCT4 expression between undifferentiated hESCs and cells committed to differentiation. […] Stated in another way, mixed population cell cultures in hESC medium would potentially support expansion/proliferation of residual undifferentiated (hESCs), thereby show increased OCT4 gene expression, as compared to cells committed to differentiation, which would have decreased of OCT4 gene expression. Plated aggregates were immunostained for OCT4 protein and counterstained with DAPI, a nuclear stain (FIG. 12). The cell aggregates that were plated had flattened and spread out within a 24-hour period; while the centers of the aggregates were still domed. […] Brightly staining OCT4-positive cells were easily identified and distinguishable from the majority of OCT4 negative cells. OCT4-positive cells were generally found in clusters and most often within the domed area of a plated aggregate. […] Smaller aggregates residing in a larger aggregate may occur as a result of the initial stages of rotational culture, or the aggregation process, during which small clusters (primary aggregates) form initially. Aggregation of two or more primary aggregates likely leads to the formation of larger secondary aggregates, which can be 100-150 μm in diameter. Thus, it is possible that any single clusters of OCT4-positive cells exist at the center of a primary aggregate and resist differentiation. Such clusters would remain substantially undifferentiated and stain OCT4-positive. One hypothesis is that primary aggregates are specified to differentiation relative to their positioning in primary and secondary aggregates. For example, FIGS. 12A through 12E show a representative series of images, from small (primary) (e.g. FIGS. 12A and 12B) and larger (secondary) (e.g. FIGS. 12C-12E) plated aggregates containing OCT4-positive clusters (dark circles).
(§1) Depletion of OCT4-positive cells during Stage 1 differentiation was examined using the plating assay described above. Stage 1 differentiations of hES cells were treated from day 1 to 2 with the candidate compounds as described in Example 2 (chelerythrine chloride, caffeic acid and Ivermectin), at their EC50 concentrations for hES cells. Plated untreated and DMSO-treated aggregates were indistinguishable, and both contained discrete clusters of OCT4-positive cells. See FIG. 13A top and bottom panels for a DMSO treated example. The intensity of OCT4-positive staining in differentiating aggregate cell cultures treated with DMSO (control) was equivalent to undifferentiated hES cells.
Additional experiments were performed using higher concentrations of compounds and extended effects of the compounds in cell culture plated aggregates in hESC medium for 24 or 72 hours before staining (FIGS. 15 and 16). […] Another group of Stage 1 differentiating cultures were processed in parallel, but treated with 10 μm chelerythrine chloride.

[2] = system: undifferentiated hESCs growing in adherent culture; test: EC50 of cytotoxic effect on undifferentiated hESCs in adherent culture, real-time impedance assay; conditions: Homo sapiens, read-out: EC50 concentrations for hES cells (cytotoxic effect)
Description: In summary, the final three (3) candidates identified from both the primary and secondary screens (EXAMPLE 1) and the full screen of the LOPAC1280™ collection (EXAMPLE 2) were Chelerythrine Chloride, Caffeic acid and Ivermectin. FIG. 11 lists the known or inferred mode(s) of action for these three compounds, as well as their structures. EC50 values for the respective cytotoxic effects on undifferentiated hESCs growing in adherent culture were determined using real-time impedance assays.
as §1

[3] = system: pancreatic endoderm differentiations of hESCs; test: Suspension aggregate differentiation to pancreatic endoderm after Stage 1 treatment, Q-PCR; conditions: Stage 1 cultures treated with 0.1 μM Caffeic acid or 0.17 μM Ivermectin
Description: FIGS. 10A-10I are bar graphs showing the relative gene expression levels of OCT4 (FIG. 10A), MIXL (FIG. 10B), HNF1B (FIG. 10C), HNF4A (FIG. 10D), PAX4 (FIG. 10E), NGN3 (FIG. 10F), NKX2.2 (FIG. 10G), NKX6.1 (FIG. 10H), and PTF1A (FIG. 10I) after treatment of suspension aggregate cell cultures at Stages 1 with DMSO (Control), 0.1 μM Caffeic acid or 0.17 μM Ivermectin agents. Untreated control samples were collected at d0 and d1 (left panel). Treated samples were collected at d2, d3, d5, d7, d9, d11, and d13. The columns for each day of the treated samples are (from left to right): DMSO, Caffeic acid, and Ivermectin. The cultures were differentiated to the end of Stage 4. The results from an untreated, pancreatic endoderm differentiation are shown on the right, with samples collected on days 0, 1, 2, 5, 8, 10 and 14.
To further determine the effects of the above compounds (excluding those compounds that induced off-target differentiation), three selected compounds (chelerythrine chloride (FIGS. 5 & 6), caffeic acid and Ivermectin) were screened for effects on later stages of pancreatic differentiation, (such as Stages 2-5). Human ESCs were first differentiated through Stage 1 then to Stages 2 to 5 in suspension aggregate cultures similar to that above. Stage 1 cultures were treated with DMSO, caffeic acid or Ivermectin substantially as described above. Untreated control samples were collected at d0 (hESC) and d1 (FIG. 10, left panel), while treated samples were collected at days 2, 3, 5, 7, 9, 11 and 13 (FIG. 10 d2, d3, d5, d7, d9, d11 and d13 respectively). Gene expression levels in the collected samples were analyzed using Q-PCR and compared to the d0 (hESC) sample as well as qualified pancreatic endoderm (FIG. 10, right panel). The qualified pancreatic endoderm control consisted of about 50% pancreatic endoderm, about 46% endocrine cells and about 4% “other” cells as determined by flow cytometry. Neither caffeic acid nor Ivermectin affected survival, growth and/or proliferation of pancreatic endoderm differentiations. […] Typical gene expression levels for Stages 3, 4 and 5 cells were normal; for example, increased expression of NKX6.1 and PTF1A at Stage 4, pancreatic endoderm (FIGS. 10H and 10I), and of NGN3 and NKX2.2 at Stage 5, endocrine precursor and endocrine cells (FIGS. 10 F and 10G) was observed.

## O=C(O)C=Cc1ccc(O)c(O)c1 [caffeic acid, 3,4-dihydroxycinnamic acid]
[1]; 5 or 10 μm caffeic acid, 24 hours, vs DMSO-treated (or untreated) controls
  size of clusters of OCT4-positive cells: smaller in size
[1]; 5 or 10 μm caffeic acid, 72 hours, vs DMSO treated control
  expansion of clusters of OCT4-positive cells: did not expand substantially
[1]; another study, 0.1 μM caffeic acid, 24 hours after plating in hESC medium (FIG. 14, BG02)
  size of OCT4-positive clusters: even more substantial decrease
[1]; treated day 1 to 2 of Stage 1 at EC50 concentration, plated 24 hours in hESC medium, vs untreated or DMSO
  intensity for OCT4 staining: significantly decreased
[2]
  EC50: 100 nM
[3]; Q-PCR d2-d13
  Typical gene expression levels for Stages 3, 4 and 5 cells (NKX6.1, PTF1A, NGN3, NKX2.2): normal
[3]; differentiated to end of Stage 4
  survival, growth and/or proliferation of pancreatic endoderm differentiations (pancreatic endoderm viability): did not affect pancreatic endoderm viability

Reference: patent publication US9365830B2, “Agents and methods for inhibiting human pluripotent stem cell growth” (VIACYTE, INC., priority 2010, dated 2016)
